# Experimental data taken from US20250250251A1, “PIPERIDINYLPYRIDINYLCARBONITRILE DERIVATIVES AS INHIBITORS OF GLUTAMINYL-PEPTIDE CYCLOTRANSFERASE AND GLUTAMINYL-PEPTIDE CYCLOTRANSFERASE LIKE PROTEIN” (Boehringer Ingelheim International GmbH, priority 2024, published 2025).
# Biological target: T1, QPCTL (Homo sapiens, UniProt Q9NXS2)
# T1 construct: made in house
# Assay: Assay A: biochemical QPCTL activity assay (MALDI-TOF MS, CD47 peptide substrate)
# Conditions: Table 2, compounds of the invention, read-out: Inhibition of QPCTL: IC50
# Procedure: (§1) QPCT or QPCTL dependent conversion of N-terminal glutamine to pyroglutamate of CD47 was monitored via MALDI-TOF MS. Test compounds were dissolved in 100% DMSO and serially diluted into clear 1,536-well microtiter plates. Enzymatic reactions were set up in assay buffer containing 20 mM Tris pH 7.5, 0.1 mM TCEP, 0.01% BSA, and 0.001% Tween20. […] The plates were incubated for 10 min in a humidified incubator at 24° C. Subsequently, 2.5 μL of CD47 peptide substrate surrogate (^19[…]^33) was added to each well (final concentration: 10 μM for QPCTL/20 μM for QPCT). The plates were mixed for 30 sec at 1,000 rpm and subsequently incubated for 40 min in a humidified incubator at 24° C. […] The plates were sealed with an adhesive foil, mixed for 30 s at 1,000 rpm and stored at room temperature until preparation of the MALDI target plates. MALDI target plates were prepared as described previously. […] QPCT or QPCTL activity was monitored by calculating the ratio between product and internal standard signals followed by normalization to high (100% activity) and low (0% activity) controls. Determination of compound potencies was obtained by fitting the dose-response data to a four-parameter logistical equation.
# T1 sequence (Q9NXS2 whole entry, species assumed): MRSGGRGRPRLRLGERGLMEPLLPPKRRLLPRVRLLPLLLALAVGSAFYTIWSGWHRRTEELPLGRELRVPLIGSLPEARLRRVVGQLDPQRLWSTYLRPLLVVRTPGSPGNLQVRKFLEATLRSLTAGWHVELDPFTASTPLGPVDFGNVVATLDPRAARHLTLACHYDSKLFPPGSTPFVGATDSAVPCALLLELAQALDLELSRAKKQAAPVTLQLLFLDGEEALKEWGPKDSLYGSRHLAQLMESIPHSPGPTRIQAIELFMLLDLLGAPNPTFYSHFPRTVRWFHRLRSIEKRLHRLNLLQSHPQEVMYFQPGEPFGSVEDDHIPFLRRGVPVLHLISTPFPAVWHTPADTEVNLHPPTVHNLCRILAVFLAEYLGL
row,IC50 [nM],Compound
1,2,Cn1cc(-c2cc(C#N)c(N3CCC(F)(c4nncn4C)CC3)c(-c3cnc4nn(C(F)(F)F)cc4c3)n2)cn1 [Example 24]
2,4,Cn1cnnc1C1(F)CCN(c2c(C#N)cc(-c3ccc(F)cc3)nc2-c2ccnnc2)CC1 [Example 18]

# System: CYP3A4 mRNA
# Assay: Assay D: CYP induction screening assay in primary human hepatocytes
# Type: in vitro ADME
# Conditions: Table 9, compounds of the invention, 48 h
# Procedure: Cryopreserved plateable human hepatocytes (single donor. BioIVT) were thawed and plated in Collagen-I coated 96-well-plates at a cell density of 0.07 million cells per well.
# After a 6 h attachment period, the seeding medium was replaced by serum-free William's medium E supplemented with Matrigel (0.25 mg/ml) and allowed to recover overnight. 24 h post-seeding, serum-free Williams E medium containing the test compound at a final concentration of […] and a final DMSO content of 0.1% and 0.1% DMSO (solvent-treated control), respectively, was added to predefined wells. Exposure solutions were renewed after 24 h.
# After 48 h of treatment in total, the effect of the test compounds on CYP3A4 mRNA expression was assessed using the QuantiGene Plex Gene Expression Assay. Hepatocytes were lysed and total RNA was extracted using the QuantiGene Sample Processing Kit according to the instructions of the manufacturer.
# mRNA quantification was conducted using a customized QuantiGene Plex Panel to analyse CYP3A4 and the housekeeper genes RPL32, EIF4E2 and GUSB according to the instructions of the manufacturer and measured on a Luminex™ instrument. Signal was reported as median fluorescence intensity (MFI), which is proportional to the number of target RNA molecules present in the sample.
# For calculation of CYP3A4 mRNA induction, the signal for CYP3A4 was normalized against the geometric mean of the signal obtained for the housekeeper genes for hepatocytes exposed to test compounds in relation to solvent-treated samples according to the following equation: […]
row,n-fold induction of CYP3A4 at 10 μM [n-fold],Compound
1,1.1,Cn1cc(-c2cc(C#N)c(N3CCC(F)(c4nncn4C)CC3)c(-c3cnc4nn(C(F)(F)F)cc4c3)n2)cn1 [Example 24]
2,1.3,Cn1cnnc1C1(F)CCN(c2c(C#N)cc(-c3ccc(F)cc3)nc2-c2ccnnc2)CC1 [Example 18]

# System: murine hepatocytes
# Assay: Assay E: stability in murine hepatocytes
# Type: in vitro ADME, mouse
# Conditions: Table 12, compounds of the invention, 1 μM, 5% species serum
# Procedure: The metabolic degradation of the test compound is assayed in a murine hepatocyte suspension.
# Murine hepatocytes (typically cryopreserved) are incubated in an appropriate buffer system (e.g. Dulbecco's modified eagle medium plus 3.5 μg glucagon/500 mL, 2.5 mg insulin/500 mL and 3.75 mg/500 mL hydrocortison) containing 5% species serum.
# Following a (typically) 30 min preincubation in an incubator (37° C., 10% CO2) 5 μl of test compound solution (80 μM; from 2 mM in DMSO stock solution diluted 1:25 with medium) are added into 395 μl hepatocyte suspension (cell density in the range 0.25-5 Mio cells/mL, typically 1 Mio cells/mL; final concentration of test compound 1 μM, final DMSO concentration 0.05%).
# The cells are incubated for six hours (incubator, orbital shaker) and samples (25 μl) are taken at 0, 0.5, 1, 2, 4 and 6 hours. Samples are transferred into acetonitrile and pelleted by centrifugation (5 min). The supernatant is transferred to a new 96-deepwell plate, evaporated under nitrogen and resuspended.
# Decline of parent compound is analyzed by HPLC-MS/MS
# CLint is calculated as follows CL_[…]=Dose/AUC=(C0/CD)/(AUD+clast/k)×1000/60. C0: initial concentration in the incubation [μM], CD: cell density of vital cells [10e6 cells/mL], AUD: area under the data [μM×h], clast: concentration of last data point [μM], k: slope of the regression line for parent decline [h−1].
# The calculated in vitro hepatic intrinsic clearance can be scaled up to the intrinsic in vivo hepatic Clearance and used to predict hepatic in vivo blood clearance (CL) by the use of a liver model (well stirred model).
# [formula] [formula] [formula] • Hepatocellularity, mouse: 120×10e6 cells/g liver • Liver factor, mouse: 55 g/kg bodyweight • Blood flow, mouse: 90 ml/(min×kg)
row,Mouse Hepatocyte Stability QH [%],Compound
1,<12,Cn1cc(-c2cc(C#N)c(N3CCC(F)(c4nncn4C)CC3)c(-c3cnc4nn(C(F)(F)F)cc4c3)n2)cn1 [Example 24]
2,44,Cn1cnnc1C1(F)CCN(c2c(C#N)cc(-c3ccc(F)cc3)nc2-c2ccnnc2)CC1 [Example 18]

# System: not listed separately
# Assay: Assay C: permeability in CACO-2 cells
# Type: in vitro ADME
# Conditions: human, pH 7.2; Table 7, compounds of the invention, CACO-2 cells
# Procedure: Caco-2 cells (1-2×10^5 cells/1 cm^2 area) are seeded on filter inserts (Costar transwell polycarbonate or PET filters, 0.4 μm pore size) and cultured (DMEM) for 10 to 25 days. Compounds are dissolved in appropriate solvent (like DMSO, 1-20 mM stock solutions). […] The transport solution (TL) is applied to the apical or basolateral donor side for measuring A-B or B-A permeability (3 filter replicates), respectively. Samples are collected at the start and end of experiment from the donor and at various time intervals for up to 2 hours also from the receiver side for concentration measurement by HPLC-MS/MS or scintillation counting. Sampled receiver volumes are replaced with fresh receiver solution.
# Efflux ratio (ER)=permeability B−A/permeability A−B
row,Papp A→B [×10⁻⁶ cm/s],Compound
1,3.4,Cn1cc(-c2cc(C#N)c(N3CCC(F)(c4nncn4C)CC3)c(-c3cnc4nn(C(F)(F)F)cc4c3)n2)cn1 [Example 24]
2,2.3,Cn1cnnc1C1(F)CCN(c2c(C#N)cc(-c3ccc(F)cc3)nc2-c2ccnnc2)CC1 [Example 18]

# Same assay, conditions: human, pH 7.2; Table 7, compounds of the invention, CACO-2 cells, permeability B-A/permeability A-B; read-out: Efflux Ratio
row,efflux ratio,Compound
1,17.9,Cn1cc(-c2cc(C#N)c(N3CCC(F)(c4nncn4C)CC3)c(-c3cnc4nn(C(F)(F)F)cc4c3)n2)cn1 [Example 24]
2,17,Cn1cnnc1C1(F)CCN(c2c(C#N)cc(-c3ccc(F)cc3)nc2-c2ccnnc2)CC1 [Example 18]

# Biological target: T2, QPCT (Homo sapiens, UniProt Q16769)
# T2 construct: purchased Origine (OriGene) TP700028
# Assay: Assay A: biochemical QPCT activity assay (MALDI-TOF MS, CD47 peptide substrate)
# Conditions: Table 2, compounds of the invention, read-out: Inhibition of QPCT: IC50
# Procedure: as §1
# T2 sequence (Q16769 29-361): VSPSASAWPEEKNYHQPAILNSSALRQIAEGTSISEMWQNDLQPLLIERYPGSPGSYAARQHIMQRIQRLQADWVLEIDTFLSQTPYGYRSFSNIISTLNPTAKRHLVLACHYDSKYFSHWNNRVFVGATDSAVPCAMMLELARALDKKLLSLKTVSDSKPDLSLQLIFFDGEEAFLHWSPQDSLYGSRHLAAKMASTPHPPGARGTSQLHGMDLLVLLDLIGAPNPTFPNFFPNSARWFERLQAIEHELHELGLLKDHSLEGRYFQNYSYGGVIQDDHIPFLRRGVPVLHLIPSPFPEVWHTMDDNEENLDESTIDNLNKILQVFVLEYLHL
row,IC50 [nM],Compound
1,3,Cn1cc(-c2cc(C#N)c(N3CCC(F)(c4nncn4C)CC3)c(-c3cnc4nn(C(F)(F)F)cc4c3)n2)cn1 [Example 24]
2,5,Cn1cnnc1C1(F)CCN(c2c(C#N)cc(-c3ccc(F)cc3)nc2-c2ccnnc2)CC1 [Example 18]

# System: SIRPα signalling induced by Raji cells
# Assay: Assay B: SIRPα signalling assay using Raji cells
# Type: cell-based
# Conditions: Homo sapiens, Table 4, compounds of the invention, read-out: Inhibition of SIRPα signalling induced by Raji cells: IC50
# Procedure: Bioassay reagent 1 of the PathHunter Bioassay detection kit (DiscoverX 93-0001) was added to each well of the plate using a multichannel pipette followed by a 15 min incubation at room temperature. Afterwards bioassay reagent 2 was added followed by 60 min incubation at room temperature (incubation in the dark).
# (§2) The analysis of the data was performed using the luminescence signal generated by beta-galactosidase in the PathHunter reporter cell line. The luminescence measurement was done using a Pherastar Multi-Mode Reader.
row,IC50 [nM],Compound
1,73,Cn1cc(-c2cc(C#N)c(N3CCC(F)(c4nncn4C)CC3)c(-c3cnc4nn(C(F)(F)F)cc4c3)n2)cn1 [Example 24]
2,262,Cn1cnnc1C1(F)CCN(c2c(C#N)cc(-c3ccc(F)cc3)nc2-c2ccnnc2)CC1 [Example 18]

# System: SIRPα signalling induced by A549 cells
# Assay: Assay B: SIRPα signalling assay using A549 cells
# Type: cell-based
# Conditions: Homo sapiens, Table 4, compounds of the invention, read-out: Inhibition of SIRPα signalling induced by A549 cells: IC50
# Procedure: Two cell types are independently used: the Raji cell line (lymphoblast-like human cell line derived from B lymphocytes from a Burkitt's lymphoma patient in 1963) and A549 cells (adenocarcinoma human alveolar basal epithelial cells).
# Test compounds were dissolved in 100% DMSO and serially diluted into a white 384-well microtiter cell culture plate (PerkinElmer #60076780 in case of Raji assay; PDL-coated plates Greiner #781945 in case of A549 assay). 5000 Raji cells (ATCC #CC86) or 5000 A549 cells (ATCC #CCL-185) in Assay Complete Cell Plating reagent 30 (DiscoverX 93-0563R30B) were added per well. The assay plate was incubated for 48 h at 37° C., 95% humidity and 5% CO2. 15000 reporter cells (Jurkat PathHunter SIRPαV1, DiscoverX #93-1135C19) were added to each well, and the plate was incubated for 5 h at 37° C., 95% humidity and 5% CO2. Bioassay reagent 1 of the PathHunter Bioassay detection kit (DiscoverX 93-0001) was added to each well of the plate using a multichannel pipette followed by a 15 min incubation at room temperature. Afterwards bioassay reagent 2 was added followed by 60 min incubation at room temperature (incubation in the dark).
# as §2, with “Reader. Dose-response curves & IC50 data were calculated with 4-parameter sigmoidal dose response formula.” for “Reader.”
row,IC50 [nM],Compound
1,27,Cn1cc(-c2cc(C#N)c(N3CCC(F)(c4nncn4C)CC3)c(-c3cnc4nn(C(F)(F)F)cc4c3)n2)cn1 [Example 24]
2,82,Cn1cnnc1C1(F)CCN(c2c(C#N)cc(-c3ccc(F)cc3)nc2-c2ccnnc2)CC1 [Example 18]
